Measured values: PubChem BioAssay (NCI)
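Results reflect a 48-hour exposure of cells in 96-well plates to compound at five concentrations. Here, GI50 denotes the concentration required for 50% inhibition of growth. The concentration for full growth arrest is given as TGI.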

Assays:
Experiment in all cases: NCI anticancer screen, dose series, 48 h
[1] = test system: SN12C renal
[2] = test system: HCT-15 colon
[3] = test system: A549 NSCLC
[4] = test system: SK-MEL-5 melanoma
[5] = test system: OVCAR-3 ovarian
[6] = test system: M14 melanoma
[7] = test system: PC-3 prostate
[8] = test system: NCI/ADR-RES ovarian
[9] = test system: ACHN renal
[10] = test system: DU-145 prostate
[11] = test system: SW-620 colon
[12] = test system: UACC-257 melanoma
[13] = test system: OVCAR-4 ovarian
[14] = test system: NCI-H23 lung
[15] = test system: HT29 colon
[16] = test system: CAKI-1 renal
[17] = test system: HCC-2998 colon
[18] = test system: HL-60(TB) leukemia
[19] = test system: 786-0 renal
[20] = test system: T-47D breast
[21] = test system: MOLT-4 leukemia
[22] = test system: NCI-H522 lung
[23] = test system: SNB-19 CNS
[24] = test system: OVCAR-5 ovarian
[25] = test system: SF-539 CNS
[26] = test system: EKVX NSCLC
[27] = test system: SK-MEL-2 melanoma
[28] = test system: SK-OV-3 ovarian
[29] = test system: NCI-H226 lung
[30] = test system: TK-10 renal
[31] = test system: SK-MEL-28 melanoma
[32] = test system: UO-31 renal
[33] = test system: UACC-62 melanoma
[34] = test system: KM12 colon
[35] = test system: SNB-75 CNS
[36] = test system: OVCAR-8 ovarian
[37] = test system: HOP-92 NSCLC
[38] = test system: RXF 393 renal
[39] = test system: U251 CNS
[40] = test system: MDA-MB-231 breast
[41] = test system: CCRF-CEM leukemia
[42] = test system: A498 renal
[43] = test system: SR leukemia
[44] = test system: MALME-3M melanoma
[45] = test system: HCT-116 colon
[46] = test system: COLO 205 colon
[47] = test system: MDA-MB-435
[48] = test system: BT-549 breast
[49] = test system: HOP-62 NSCLC
[50] = test system: NCI-H460 lung
[51] = test system: SF-268 CNS
[52] = test system: RPMI-8226 leukemia
[53] = test system: MDA-MB-468 breast
[54] = test system: IGROV1 ovarian
[55] = test system: HS 578T breast
[56] = test system: K-562 leukemia
[57] = test system: SF-295 CNS
[58] = test system: LOX IMVI melanoma
[59] = test system: MCF7 breast

## Cn1cc(-c2cc(N)n3nc(-c4cn(C)c5ccccc45)cc3n2)c2cc(Br)ccc21
[1]
  GI50: 1.66 µM
  TGI: 3.18 µM
[2]
  GI50: 1.71 µM
  TGI: 4.59 µM
[3]
  GI50: 2.44 µM
  TGI: > 100 µM
[4]
  GI50: 1.89 µM
  TGI: 3.5 µM
[5]
  GI50: 2.22 µM
  TGI: 5.16 µM
[6]
  GI50: 1.82 µM
  TGI: 3.68 µM
[7]
  GI50: 1.87 µM
  TGI: 4.69 µM
[8]
  GI50: 2.45 µM
  TGI: 6.77 µM
[9]
  GI50: 1.78 µM
  TGI: 4.05 µM
[10]
  GI50: 4.96 µM
  TGI: > 100 µM
[11]
  GI50: 2.16 µM
  TGI: 5 µM
[12]
  GI50: 1.73 µM
  TGI: 3.34 µM
[13]
  GI50: 2.46 µM
  TGI: 6.34 µM
[14]
  GI50: 2.36 µM
  TGI: 7.02 µM
[15]
  GI50: 1.7 µM
  TGI: 3.25 µM
[16]
  GI50: 1.44 µM
  TGI: 2.96 µM
[17]
  GI50: 1.81 µM
  TGI: 3.49 µM
[18]
  GI50: 2.08 µM
  TGI: 5.53 µM
[19]
  GI50: 1.57 µM
  TGI: 2.99 µM
[20]
  GI50: 2.07 µM
  TGI: 5.7 µM
[21]
  GI50: 1.6 µM
  TGI: 7.55 µM
[22]
  GI50: 1.55 µM
  TGI: 3.21 µM
[23]
  GI50: 3.24 µM
  TGI: 25.9 µM
[24]
  GI50: 2.55 µM
  TGI: 7.8 µM
[25]
  GI50: 1.58 µM
  TGI: 3.09 µM
[26]
  GI50: 1.75 µM
  TGI: 6.71 µM
[27]
  GI50: 1.68 µM
  TGI: 3.36 µM
[28]
  GI50: 3.72 µM
  TGI: 17.2 µM
[29]
  GI50: 25.1 µM
  TGI: > 100 µM
[30]
  GI50: 2.19 µM
  TGI: 4.81 µM
[31]
  GI50: 1.72 µM
  TGI: 3.14 µM
[32]
  GI50: 1.48 µM
  TGI: 2.85 µM
[33]
  GI50: 1.58 µM
  TGI: 3.05 µM
[34]
  GI50: 2.02 µM
  TGI: 4.66 µM
[35]
  GI50: 2.41 µM
  TGI: 9.59 µM
[36]
  GI50: 1.83 µM
  TGI: 3.67 µM
[37]
  GI50: 1.48 µM
  TGI: 3.16 µM
[38]
  GI50: 1.8 µM
  TGI: 3.46 µM
[39]
  GI50: 1.79 µM
  TGI: 3.65 µM
[40]
  GI50: 1.7 µM
  TGI: 3.12 µM
[41]
  GI50: 2.87 µM
  TGI: 11.7 µM
[42]
  GI50: 1.74 µM
  TGI: 3.89 µM
[43]
  GI50: 1.7 µM
  TGI: 7.3 µM
[44]
  GI50: 1.66 µM
  TGI: 3.08 µM
[45]
  GI50: 1.59 µM
  TGI: 2.93 µM
[46]
  GI50: 1.95 µM
  TGI: 3.9 µM
[47]
  GI50: 1.87 µM
  TGI: 3.67 µM
[48]
  GI50: 2.29 µM
  TGI: 5.65 µM
[49]
  GI50: 2.24 µM
  TGI: 6.01 µM
[50]
  GI50: 1.96 µM
  TGI: 4.03 µM
[51]
  GI50: 2.66 µM
  TGI: 8.95 µM
[52]
  GI50: 2.48 µM
  TGI: 8.15 µM
[53]
  GI50: 1.57 µM
  TGI: 3.73 µM
[54]
  GI50: 1.82 µM
  TGI: 5.07 µM
[55]
  GI50: 2.44 µM
  TGI: 5.92 µM

## Clc1ccc2c(NCCNC34CC5CC(CC(C5)C3)C4)ccnc2c1
[1]
  GI50: 3.24 µM
  TGI: 6.34 µM
[2]
  GI50: 0.763 µM
  TGI: 3.28 µM
[3]
  GI50: 3.19 µM
  TGI: 7.18 µM
[4]
  GI50: 3.12 µM
  TGI: 6.12 µM
[56]
  GI50: 0.756 µM
  TGI: 4.57 µM
[5]
  GI50: 3.11 µM
  TGI: 6.1 µM
[6]
  GI50: 0.43 µM
  TGI: 0.837 µM
[7]
  GI50: 3.1 µM
  TGI: 7.77 µM
[8]
  GI50: 3.21 µM
  TGI: 6.42 µM
[9]
  GI50: 2.88 µM
  TGI: 5.83 µM
[10]
  GI50: 3.57 µM
  TGI: 6.72 µM
[11]
  GI50: 2.83 µM
  TGI: 6 µM
[12]
  GI50: 3.24 µM
  TGI: 6.62 µM
[13]
  GI50: 2.95 µM
  TGI: 7.8 µM
[14]
  GI50: 3.41 µM
  TGI: 6.82 µM
[15]
  GI50: 0.675 µM
  TGI: 2.71 µM
[16]
  GI50: 2.82 µM
  TGI: 5.76 µM
[17]
  GI50: 0.889 µM
  TGI: 3.32 µM
[18]
  GI50: 3.69 µM
  TGI: 8.73 µM
[19]
  GI50: 2.41 µM
  TGI: 5.57 µM
[20]
  GI50: 3.33 µM
  TGI: 7.75 µM
[21]
  GI50: 3.63 µM
  TGI: 10.2 µM
[22]
  GI50: 2.9 µM
  TGI: 6.34 µM
[23]
  GI50: 3.8 µM
  TGI: 7.19 µM
[24]
  GI50: 2.9 µM
  TGI: 6.05 µM
[25]
  GI50: 0.533 µM
  TGI: 1.21 µM
[26]
  GI50: 3.53 µM
  TGI: 7.16 µM
[27]
  GI50: 3.37 µM
  TGI: 6.62 µM
[28]
  GI50: 4.32 µM
  TGI: 8.21 µM
[29]
  GI50: 3.04 µM
  TGI: 6.5 µM
[30]
  GI50: 3.71 µM
  TGI: 7.28 µM
[31]
  GI50: 3.15 µM
  TGI: 6.2 µM
[32]
  GI50: 2.57 µM
  TGI: 5.38 µM
[33]
  GI50: 3.03 µM
  TGI: 6.05 µM
[34]
  GI50: 2.87 µM
  TGI: 5.82 µM
[35]
  GI50: 3.15 µM
  TGI: 6.97 µM
[36]
  GI50: 2.9 µM
  TGI: 6.16 µM
[37]
  GI50: 0.484 µM
  TGI: 3.17 µM
[57]
  GI50: 3.47 µM
  TGI: 6.67 µM
[39]
  GI50: 1.32 µM
  TGI: 4.78 µM
[40]
  GI50: 2.38 µM
  TGI: 5.19 µM
[41]
  GI50: 5 µM
  TGI: 12.9 µM
[42]
  GI50: 3.09 µM
  TGI: 6.1 µM
[43]
  GI50: 0.622 µM
  TGI: 2.31 µM
[44]
  GI50: 1.25 µM
  TGI: 4.24 µM
[45]
  GI50: 1.43 µM
  TGI: 4.91 µM
[46]
  GI50: 0.416 µM
  TGI: 1 µM
[47]
  GI50: 0.566 µM
  TGI: 1.6 µM
[48]
  GI50: 2.67 µM
  TGI: 6.03 µM
[49]
  GI50: 3.7 µM
  TGI: 7.41 µM
[50]
  GI50: 3.31 µM
  TGI: 6.61 µM
[51]
  GI50: 3.03 µM
  TGI: 6.14 µM
[52]
  GI50: 1.22 µM
  TGI: 9.55 µM
[58]
  GI50: 1.06 µM
  TGI: 4.07 µM
[59]
  GI50: 0.868 µM
  TGI: 3.47 µM
[53]
  GI50: 0.435 µM
  TGI: 1.21 µM
[54]
  GI50: 3.37 µM
  TGI: 6.65 µM
[55]
  GI50: 2.64 µM
  TGI: 6.51 µM
